The subject of assay [1] is BRCA1 mRNA expression in MDA-MB-231 cells. The experiment in a line: qRT-PCR assay: BRCA1 mRNA expression in MDA-MB-231. The conditions noted are these: Homo sapiens, MDA-MB-231, Inhibition of BRCA1 mRNA expression in MDA-MB-231 cells; median; read-out: RTqPCR-MDA-MB-231, IC50, BRCA1 (median). Format: cell-based, human. The procedure, abridged:
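Human breast cancer cells, 200,000/well, were treated with test agents for 24 h without interruption after a 24 h settling period. Gene expression came from qPCR on cDNA made from 600 ng RNA, relative to GAPDH.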

Assay [2] concerns MDA-MB-231, human breast cancer cells. The experiment in a line: Proliferation assay MDA-MB-231 (crystal violet, 4 days). Format: cell-based. To be noted: Homo sapiens, MDA-MB-231, 96 h, MDA-MB-231 cells, median, read-out: Prolif-MDA MB-231, IC50-[mol/l] (median). The procedure, abridged:
(§1)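 Crystal violet proliferation read-out after 4 days of compound exposure (0.01-10 µmol/L; solvent 0.1% DMSO). Extinction at 595 nm, set between zero-point (0%) and vehicle (100%), fitted with 4 parameters to give IC50.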

For assay [3], the system named is CAL-120, human breast adenocarcinoma cells. Description: Proliferation assay CAL-120 (crystal violet, 4 days). The assay is classed as cell-based. The conditions noted are these: Homo sapiens, CAL-120, 96 h, CAL-120 cells, median, read-out: Prolif-CAL-120, IC50-[mol/l] (median). The procedure, abridged: as §1
For assay [4], the target named is T1, CDK12 (nuclear staining in CAL-120 cells) (Homo sapiens, UniProt Q9NYV4).
T1 construct: endogenous in cells; host or cells: CAL-120 human breast cancer cells (DSMZ ACC 459)
T1 sequence (Q9NYV4 whole entry): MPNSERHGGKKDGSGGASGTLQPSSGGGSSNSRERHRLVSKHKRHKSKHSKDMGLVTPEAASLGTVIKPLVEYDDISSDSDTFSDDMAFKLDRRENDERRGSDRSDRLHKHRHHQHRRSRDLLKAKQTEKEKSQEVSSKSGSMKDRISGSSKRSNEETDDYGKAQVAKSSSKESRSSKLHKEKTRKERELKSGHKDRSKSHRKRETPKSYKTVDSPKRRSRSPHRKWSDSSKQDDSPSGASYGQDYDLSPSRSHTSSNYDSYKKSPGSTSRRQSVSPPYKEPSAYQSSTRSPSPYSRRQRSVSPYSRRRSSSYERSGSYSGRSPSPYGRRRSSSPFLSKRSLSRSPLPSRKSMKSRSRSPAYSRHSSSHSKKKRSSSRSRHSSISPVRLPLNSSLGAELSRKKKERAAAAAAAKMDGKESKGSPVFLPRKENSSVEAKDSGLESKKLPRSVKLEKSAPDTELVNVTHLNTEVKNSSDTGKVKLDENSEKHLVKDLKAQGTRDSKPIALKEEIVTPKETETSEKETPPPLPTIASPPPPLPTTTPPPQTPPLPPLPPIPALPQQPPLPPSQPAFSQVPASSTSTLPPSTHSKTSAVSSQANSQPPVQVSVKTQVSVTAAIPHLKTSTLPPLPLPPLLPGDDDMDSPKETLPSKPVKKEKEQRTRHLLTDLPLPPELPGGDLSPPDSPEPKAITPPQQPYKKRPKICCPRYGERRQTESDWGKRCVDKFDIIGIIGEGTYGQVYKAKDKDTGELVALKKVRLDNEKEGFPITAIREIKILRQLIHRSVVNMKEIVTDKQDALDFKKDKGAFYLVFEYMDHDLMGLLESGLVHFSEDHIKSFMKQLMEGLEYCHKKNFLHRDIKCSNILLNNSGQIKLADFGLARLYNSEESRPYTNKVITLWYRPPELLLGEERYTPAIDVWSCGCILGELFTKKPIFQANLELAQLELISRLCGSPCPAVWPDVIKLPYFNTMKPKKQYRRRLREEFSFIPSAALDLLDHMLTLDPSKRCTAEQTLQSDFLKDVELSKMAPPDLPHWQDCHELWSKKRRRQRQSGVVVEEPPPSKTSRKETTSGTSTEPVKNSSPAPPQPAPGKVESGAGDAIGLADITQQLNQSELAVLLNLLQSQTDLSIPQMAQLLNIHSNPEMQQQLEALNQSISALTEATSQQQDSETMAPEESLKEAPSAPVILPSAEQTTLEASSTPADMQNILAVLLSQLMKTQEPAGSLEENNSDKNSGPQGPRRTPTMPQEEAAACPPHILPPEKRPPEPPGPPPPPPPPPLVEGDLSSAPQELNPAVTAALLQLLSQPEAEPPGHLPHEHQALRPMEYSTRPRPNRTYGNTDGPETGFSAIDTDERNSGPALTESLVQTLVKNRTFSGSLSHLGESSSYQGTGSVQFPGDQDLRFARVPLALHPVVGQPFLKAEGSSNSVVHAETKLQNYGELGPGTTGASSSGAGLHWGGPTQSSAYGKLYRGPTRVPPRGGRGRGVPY
T1 sequence (O75909 whole entry partner): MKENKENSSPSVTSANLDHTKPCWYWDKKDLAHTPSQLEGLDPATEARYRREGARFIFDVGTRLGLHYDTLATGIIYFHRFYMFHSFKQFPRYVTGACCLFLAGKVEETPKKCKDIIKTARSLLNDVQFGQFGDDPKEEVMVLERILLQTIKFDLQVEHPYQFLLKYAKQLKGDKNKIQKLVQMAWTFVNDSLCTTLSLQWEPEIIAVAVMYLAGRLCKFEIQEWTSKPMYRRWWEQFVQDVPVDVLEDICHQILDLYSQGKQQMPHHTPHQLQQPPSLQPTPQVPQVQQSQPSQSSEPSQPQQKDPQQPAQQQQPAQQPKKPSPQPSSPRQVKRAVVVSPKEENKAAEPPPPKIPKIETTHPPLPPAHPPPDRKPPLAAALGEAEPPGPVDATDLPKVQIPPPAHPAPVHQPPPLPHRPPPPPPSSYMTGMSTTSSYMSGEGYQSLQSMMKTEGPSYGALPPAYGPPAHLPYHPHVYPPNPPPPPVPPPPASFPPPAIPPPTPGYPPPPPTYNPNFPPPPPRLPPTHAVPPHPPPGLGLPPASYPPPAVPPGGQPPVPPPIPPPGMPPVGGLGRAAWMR
Description: CDK12 nuclear protein level: immunofluorescence/high content analysis (CAL-120). Format: cell-based. To be noted: for DC50: CAL-120 cells, 24 h, immunofluorescence, 50% reduction of nuclear CDK12 staining intensity, median, read-out: CDK12 degradation IF, DC50- [mol/l] (median); for (IC50 CDK12 high ATP) to (Degradation DC50 CDK12) ratio: ratio of IC50 CDK12 high ATP kinase assay to DC50 CDK12 degradation (IF, CAL-120). The procedure, abridged:
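DC50 is the degrader concentration that halves nuclear CDK12 immunofluorescence relative to controls, measured by high-content imaging. CAL-120 cells were exposed to compound for 24 h at 37 °C before PFA fixation, and signal was normalized to DMSO and control wells.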

pIC50: −log10 of the molar value.

As to `Fc1ccc2[nH]c(CNc3nc(N4CCOCC4)nc4c(C5CC5)cnn34)nc2c1` [Example 181, 8-cyclopropyl-N-[(5-fluoro-1H-benzimidazol-2-yl)methyl]-2-(morpholin-4-yl)pyrazolo[1,5-a][1,3,5]triazin-4-amine], the pIC50 is 8.45 in assay [1], 8.03 in assay [2] and 8.21 in assay [3]. Besides, the DC50 in assay [4] was 0.878 nM. The “(IC50 CDK12 high ATP) to (Degradation DC50 CDK12) ratio” value in assay [4] is given as 2179.

In the case of `Cc1ccc2[nH]c(CNc3nc(N4C[C@@H](C)N[C@@H](C)C4)nc4c(Br)cnn34)nc2c1` [Example 209, 8-bromo-2-[(3R,5S)-3,5-dimethylpiperazin-1-yl]-N-[(5-methyl-1H-benzimidazol-2-yl)methyl]pyrazolo[1,5-a][1,3,5]triazin-4-amine], the pIC50 was 8.78 in assay [1], 8.65 in assay [2] and 8.89 in assay [3]. Besides, the DC50 in assay [4] was 0.471 nM. Also, the “(IC50 CDK12 high ATP) to (Degradation DC50 CDK12) ratio” value in assay [4] is on record as 14455.

Consider `Cc1ccc2[nH]c(CNc3nc(N4CCOCC4)nc4c(C5CC5)cnn34)nc2c1` [Example 193, 8-cyclopropyl-N-[(5-methyl-1H-benzimidazol-2-yl)methyl]-2-(morpholin-4-yl)pyrazolo[1,5-a][1,3,5]triazin-4-amine], for which the results for the pIC50 in assay [1], in assay [2] and in assay [3] were 8.44, 8.18 and 8.30, respectively. The DC50 in assay [4] turned out to be 2.68 nM. Moreover, the “(IC50 CDK12 high ATP) to (Degradation DC50 CDK12) ratio” value in assay [4] is given as 653.

On to `COC(C)(C)CNc1nc(NCc2nc3ccccc3[nH]2)n2ncc(Br)c2n1` [Example 236, N4-(1H-benzimidazol-2-ylmethyl)-8-bromo-N2-(2-methoxy-2-methyl-propyl)pyrazolo[1,5-a][1,3,5]triazine-2,4-diamine], for which the pIC50 in assay [1] was 7.69; in assay [2] it was 7.04; in assay [3], 7.01. The DC50 in assay [4] stood at 7.18 nM.

For `Brc1cnn2c(NCc3nc4ccccc4[nH]3)nc(N3C[C@H]4CCCN[C@H]4C3)nc12` [Example 199, N-[(1H-benzimidazol-2-yl)methyl]-8-bromo-2-[(4aR, 7aR)-octahydro-6H-pyrrolo[3,4-b]pyridin-6-yl]pyrazolo[1,5-a][1,3,5]triazin-4-amine], the values for the pIC50 in assay [1], in assay [2] and in assay [3] were 7.32, 7.27 and 7.81, respectively. For the same molecule, the DC50 in assay [4] was found to be 5.55 nM. For the same molecule, the “(IC50 CDK12 high ATP) to (Degradation DC50 CDK12) ratio” value in assay [4] worked out at 2661.

With `OC[C@@H]1CCCCN1c1nc(NCc2nc3c(F)c(F)ccc3[nH]2)n2ncc(C3CC3)c2n1` [Example 184, [(2S)-1-(8-cyclopropyl-4-{[(4,5-difluoro-1H-benzimidazol-2-yl)methyl]amino}pyrazolo[1,5-a][1,3,5]triazin-2-yl)piperidin-2-yl]methanol], the pIC50 is 8.41 in assay [1], 7.99 in assay [2] and 8.03 in assay [3]. Further, the DC50 in assay [4] was 1.75 nM. For the same molecule, the “(IC50 CDK12 high ATP) to (Degradation DC50 CDK12) ratio” value in assay [4] stood at 8.

As to `Cc1ccc2[nH]c(CNc3nc(N4C[C@H]5C[C@@H]4CO5)nc4c(Br)cnn34)nc2c1` [Example 192, 8-bromo-N-[(5-methyl-1H-benzimidazol-2-yl)methyl]-2-[(1R,4R)-2-oxa-5-azabicyclo[2.2.1]heptan-5-yl]pyrazolo[1,5-a][1,3,5]triazin-4-amine], the pIC50 in assay [1] was 8.69; in assay [2] it was 8.31; in assay [3] it was 8.51. Moreover, the DC50 in assay [4] was found to be 0.56 nM. In addition, the “(IC50 CDK12 high ATP) to (Degradation DC50 CDK12) ratio” value in assay [4] stood at 15180.

Turning to `CN1CCN(c2nc(NCc3nc4ccccc4[nH]3)n3ncc(Br)c3n2)CC1` [Example 18, N-[(1H-benzimidazol-2-yl)methyl]-8-bromo-2-(4-methylpiperazin-1-yl)pyrazolo[1,5-a][1,3,5]triazin-4-amine], the pIC50 in assay [1] is 7.94; in assay [2], 7.51; in assay [3], 7.49. Also, the DC50 in assay [4] was 2.98 nM. The “(IC50 CDK12 high ATP) to (Degradation DC50 CDK12) ratio” value in assay [4] was more than 5268.

Regarding `Fc1ccc2[nH]c(CNc3nc(N4C[C@@H]5CCCN[C@@H]5C4)nc4c(C5CC5)cnn34)nc2c1` [Example 180, 8-cyclopropyl-N-[(5-fluoro-1H-benzimidazol-2-yl)methyl]-2-[(4aS, 7aS)-octahydro-6H-pyrrolo[3,4-b]pyridin-6-yl]pyrazolo[1,5-a][1,3,5]triazin-4-amine], the pIC50 in assay [1] is 7.92; in assay [2], 7.86; in assay [3] it was 8.90. Besides, in assay [4], the DC50 was determined as 1.59 nM. For the same molecule, the “(IC50 CDK12 high ATP) to (Degradation DC50 CDK12) ratio” value in assay [4] is on record as 10852.

On to `Fc1ccc2[nH]c(CNc3nc(N4CCOCC4)nc4c(C5CC5)cnn34)nc2c1F` [Example 172, 8-cyclopropyl-N-[(4,5-difluoro-1H-benzimidazol-2-yl)methyl]-2-(morpholin-4-yl)pyrazolo[1,5-a][1,3,5]triazin-4-amine], for which the pIC50 in assay [1] is 9.20; in assay [2], 8.27; in assay [3], 8.61. Besides, the DC50 in assay [4] was 1.1 nM. Also, the “(IC50 CDK12 high ATP) to (Degradation DC50 CDK12) ratio” value in assay [4] turned out to be 581.

As to `Fc1cccc2[nH]c(CNc3nc(N4CCNCC4)nc4c(C5CC5)cnn34)nc12` [Example 182, 8-cyclopropyl-N-[(4-fluoro-1H-benzimidazol-2-yl)methyl]-2-(piperazin-1-yl)pyrazolo[1,5-a][1,3,5]triazin-4-amine], the pIC50 was 8.48 in assay [1], 7.99 in assay [2] and 8.43 in assay [3]. Besides, the DC50 in assay [4] is 0.727 nM. Besides, the “(IC50 CDK12 high ATP) to (Degradation DC50 CDK12) ratio” value in assay [4] is 2813.

`CC1(O)CCN(c2nc(NCc3nc4ccccc4[nH]3)n3ncc(Br)c3n2)C1` (stereo not drawn) [Example 225, 1-[4-(1H-benzimidazol-2-ylmethylamino)-8-bromo-pyrazolo[1,5-a][1,3,5]triazin-2-yl]-3-methyl-pyrrolidin-3-ol]: the pIC50 in assay [1] is 7.46; in assay [2], 6.91; in assay [3] it was 7.20. In assay [4], the DC50 is 22.1 nM. In addition, the “(IC50 CDK12 high ATP) to (Degradation DC50 CDK12) ratio” value in assay [4] is recorded as 466.

Turning to `Cc1ccc2[nH]c(CNc3nc(N4C[C@@H]5CCCN[C@@H]5C4)nc4c(Br)cnn34)nc2c1` [Example 203, 8-bromo-N-[(5-methyl-1H-benzimidazol-2-yl)methyl]-2-[(4aS, 7aS)-octahydro-6H-pyrrolo[3,4-b]pyridin-6-yl]pyrazolo[1,5-a][1,3,5]triazin-4-amine], the pIC50 in assay [1] was 8.92; in assay [2], 8.77; in assay [3] it was 8.99. Also, in assay [4], the DC50 was 0.64 nM. Further, the “(IC50 CDK12 high ATP) to (Degradation DC50 CDK12) ratio” value in assay [4] worked out at 13757.

Take `CCNc1nc(NCc2nc3ccccc3[nH]2)n2ncc(Br)c2n1` [Example 227, N4-(1H-benzimidazol-2-ylmethyl)-8-bromo-N2-ethyl-pyrazolo[1,5-a][1,3,5]triazine-2,4-diamine]: the values for the pIC50 in assay [1], in assay [2] and in assay [3] were 7.82, 7.24 and 7.35, respectively. In addition, in assay [4], the DC50 was 16.8 nM. In assay [4], the “(IC50 CDK12 high ATP) to (Degradation DC50 CDK12) ratio” value is 565.

Consider `CN1CC2CN(c3nc(NCc4nc5ccccc5[nH]4)n4ncc(Br)c4n3)CC2C1` (stereo not drawn) [Example 240, N-(1H-benzimidazol-2-ylmethyl)-8-bromo-2-(2-methyl-1,3,3a,4,6,6a-hexahydropyrrolo[3,4-c]pyrrol-5-yl)pyrazolo[1,5-a][1,3,5]triazin-4-amine], for which the pIC50 in assay [1] was 8.11; in assay [2], 7.41; in assay [3] it was 7.63. In addition, the DC50 in assay [4] turned out to be 5.56 nM. Moreover, the “(IC50 CDK12 high ATP) to (Degradation DC50 CDK12) ratio” value in assay [4] is recorded as more than 3596.

`Fc1ccc2[nH]c(CNc3nc(N4C[C@@H]5C[C@H]4CO5)nc4c(C5CC5)cnn34)nc2c1F` [Example 173, 8-cyclopropyl-N-[(4,5-difluoro-1H-benzimidazol-2-yl)methyl]-2-[(1S,4S)-2-oxa-5-azabicyclo[2.2.1]heptan-5-yl]pyrazolo[1,5-a][1,3,5]triazin-4-amine]: the pIC50 was 8.34 in assay [1], 7.68 in assay [2] and 8.09 in assay [3]. Besides, the DC50 in assay [4] came out at 1.74 nM. Also, the “(IC50 CDK12 high ATP) to (Degradation DC50 CDK12) ratio” value in assay [4] is more than 11498.

Turning to `COc1cccc2[nH]c(CNc3nc(N4CCOCC4)nc4c(C5CC5)cnn34)nc12` [Example 213, 8-cyclopropyl-N-[(4-methoxy-1H-benzimidazol-2-yl)methyl]-2-morpholino-pyrazolo[1,5-a][1,3,5]triazin-4-amine], the pIC50 in assay [1] was 7.82; in assay [2] it was 7.61; in assay [3] it was 7.97. The DC50 in assay [4] amounted to 2.11 nM. The “(IC50 CDK12 high ATP) to (Degradation DC50 CDK12) ratio” value in assay [4] came to 497.
